Assay results taken from patent US10457654B2 (GENENTECH, INC., priority 2017, dated 2019).
Where a name gives a salt, the structure may show the parent alone.

Key:
hNav1.7 [1] = biological target: T1, hNav1.7 (Homo sapiens (Human), UniProt Q15858); test: Tritiated compound binding to membranes from cells expressing hNav1.7 and the β1 subunit, modified protocol (LBA, Ex. 243B); conditions: 300 pM [3H]compound, room temperature, read-out: Nav1.7 LBA (Ex. 243B) IC50
Target sequence in this assay (Q15858 whole entry, looked up): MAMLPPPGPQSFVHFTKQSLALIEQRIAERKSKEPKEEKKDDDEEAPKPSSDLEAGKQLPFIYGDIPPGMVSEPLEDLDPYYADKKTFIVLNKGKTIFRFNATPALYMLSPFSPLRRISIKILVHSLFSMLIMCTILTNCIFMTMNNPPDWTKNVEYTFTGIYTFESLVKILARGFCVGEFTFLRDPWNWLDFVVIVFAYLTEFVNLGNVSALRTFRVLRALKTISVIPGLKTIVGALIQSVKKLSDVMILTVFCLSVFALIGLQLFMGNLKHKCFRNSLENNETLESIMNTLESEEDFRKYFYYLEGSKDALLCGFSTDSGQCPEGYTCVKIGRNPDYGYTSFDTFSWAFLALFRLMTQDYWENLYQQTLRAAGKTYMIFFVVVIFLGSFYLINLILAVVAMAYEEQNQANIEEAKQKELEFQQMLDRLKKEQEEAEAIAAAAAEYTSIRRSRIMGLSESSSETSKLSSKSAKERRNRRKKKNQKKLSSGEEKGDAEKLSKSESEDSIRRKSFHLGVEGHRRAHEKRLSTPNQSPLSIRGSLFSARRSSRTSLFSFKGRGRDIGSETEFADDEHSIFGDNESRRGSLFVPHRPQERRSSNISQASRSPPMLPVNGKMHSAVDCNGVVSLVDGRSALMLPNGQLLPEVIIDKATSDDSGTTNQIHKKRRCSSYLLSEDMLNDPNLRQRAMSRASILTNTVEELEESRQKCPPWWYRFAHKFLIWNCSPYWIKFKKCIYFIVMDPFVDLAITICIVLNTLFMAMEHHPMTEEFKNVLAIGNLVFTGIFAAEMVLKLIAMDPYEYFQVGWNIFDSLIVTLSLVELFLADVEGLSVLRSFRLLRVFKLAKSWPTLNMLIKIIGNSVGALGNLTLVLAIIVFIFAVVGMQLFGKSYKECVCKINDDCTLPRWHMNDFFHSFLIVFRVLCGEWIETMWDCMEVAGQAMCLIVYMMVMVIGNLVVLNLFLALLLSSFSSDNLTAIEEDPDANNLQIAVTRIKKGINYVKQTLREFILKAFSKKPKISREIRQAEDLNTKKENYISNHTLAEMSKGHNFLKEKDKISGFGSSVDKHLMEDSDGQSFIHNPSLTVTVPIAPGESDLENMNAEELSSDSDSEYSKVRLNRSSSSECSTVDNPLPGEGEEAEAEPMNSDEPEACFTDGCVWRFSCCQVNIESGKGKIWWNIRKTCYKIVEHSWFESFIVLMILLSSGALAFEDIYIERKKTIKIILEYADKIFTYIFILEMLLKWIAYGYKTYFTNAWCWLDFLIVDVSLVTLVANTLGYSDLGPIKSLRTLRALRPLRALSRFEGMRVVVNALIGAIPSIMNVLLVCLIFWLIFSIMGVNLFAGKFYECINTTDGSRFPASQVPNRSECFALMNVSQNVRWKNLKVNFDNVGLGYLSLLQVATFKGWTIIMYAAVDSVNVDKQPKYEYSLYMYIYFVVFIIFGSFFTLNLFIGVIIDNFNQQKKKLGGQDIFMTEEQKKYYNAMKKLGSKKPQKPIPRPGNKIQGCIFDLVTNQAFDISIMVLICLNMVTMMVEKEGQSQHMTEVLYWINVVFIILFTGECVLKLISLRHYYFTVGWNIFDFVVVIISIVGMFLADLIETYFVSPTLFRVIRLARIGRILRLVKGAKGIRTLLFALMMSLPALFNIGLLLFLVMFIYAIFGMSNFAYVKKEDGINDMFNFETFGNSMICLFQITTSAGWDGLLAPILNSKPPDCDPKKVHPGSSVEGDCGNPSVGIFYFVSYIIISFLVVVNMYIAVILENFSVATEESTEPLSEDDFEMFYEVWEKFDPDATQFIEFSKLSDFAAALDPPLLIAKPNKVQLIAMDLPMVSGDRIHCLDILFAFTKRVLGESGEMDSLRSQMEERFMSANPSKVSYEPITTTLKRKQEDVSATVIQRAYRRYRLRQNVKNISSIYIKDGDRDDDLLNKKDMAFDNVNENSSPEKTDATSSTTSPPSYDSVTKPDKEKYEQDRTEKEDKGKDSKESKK
Target sequence in this assay (Q07699 whole entry partner, looked up): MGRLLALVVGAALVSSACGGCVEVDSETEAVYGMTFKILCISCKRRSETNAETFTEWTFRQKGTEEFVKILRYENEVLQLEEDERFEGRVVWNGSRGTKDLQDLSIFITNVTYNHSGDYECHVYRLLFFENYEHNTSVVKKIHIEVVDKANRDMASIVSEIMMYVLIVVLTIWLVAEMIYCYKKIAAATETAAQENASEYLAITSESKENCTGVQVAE

hNav1.7 [2] = biological target: T1, hNav1.7; test: Patch voltage clamp electrophysiology assay (EP), Syncropatch 384PE, CHO cells expressing Nav1.7; format: cell-based; conditions: holding potential -50 mV; […] compound incubation; read-out: EP_SP hNav1.7 (Ex. 243B) IC50
In short: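 Automated whole-cell patch clamp on CHO cells stably expressing human Nav1.7, CsCl/EGTA internal and NMDG/80 mM Na+ external (pH 7.4). From −50 mV holding, −10 mV step, 20 ms recovery at −150 mV, then second −10 mV pulse where block is measured; inhibition after 7.5 min compound incubation.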
Target sequence in this assay (Q15858 other isoform, or with tags, fused parts or gaps): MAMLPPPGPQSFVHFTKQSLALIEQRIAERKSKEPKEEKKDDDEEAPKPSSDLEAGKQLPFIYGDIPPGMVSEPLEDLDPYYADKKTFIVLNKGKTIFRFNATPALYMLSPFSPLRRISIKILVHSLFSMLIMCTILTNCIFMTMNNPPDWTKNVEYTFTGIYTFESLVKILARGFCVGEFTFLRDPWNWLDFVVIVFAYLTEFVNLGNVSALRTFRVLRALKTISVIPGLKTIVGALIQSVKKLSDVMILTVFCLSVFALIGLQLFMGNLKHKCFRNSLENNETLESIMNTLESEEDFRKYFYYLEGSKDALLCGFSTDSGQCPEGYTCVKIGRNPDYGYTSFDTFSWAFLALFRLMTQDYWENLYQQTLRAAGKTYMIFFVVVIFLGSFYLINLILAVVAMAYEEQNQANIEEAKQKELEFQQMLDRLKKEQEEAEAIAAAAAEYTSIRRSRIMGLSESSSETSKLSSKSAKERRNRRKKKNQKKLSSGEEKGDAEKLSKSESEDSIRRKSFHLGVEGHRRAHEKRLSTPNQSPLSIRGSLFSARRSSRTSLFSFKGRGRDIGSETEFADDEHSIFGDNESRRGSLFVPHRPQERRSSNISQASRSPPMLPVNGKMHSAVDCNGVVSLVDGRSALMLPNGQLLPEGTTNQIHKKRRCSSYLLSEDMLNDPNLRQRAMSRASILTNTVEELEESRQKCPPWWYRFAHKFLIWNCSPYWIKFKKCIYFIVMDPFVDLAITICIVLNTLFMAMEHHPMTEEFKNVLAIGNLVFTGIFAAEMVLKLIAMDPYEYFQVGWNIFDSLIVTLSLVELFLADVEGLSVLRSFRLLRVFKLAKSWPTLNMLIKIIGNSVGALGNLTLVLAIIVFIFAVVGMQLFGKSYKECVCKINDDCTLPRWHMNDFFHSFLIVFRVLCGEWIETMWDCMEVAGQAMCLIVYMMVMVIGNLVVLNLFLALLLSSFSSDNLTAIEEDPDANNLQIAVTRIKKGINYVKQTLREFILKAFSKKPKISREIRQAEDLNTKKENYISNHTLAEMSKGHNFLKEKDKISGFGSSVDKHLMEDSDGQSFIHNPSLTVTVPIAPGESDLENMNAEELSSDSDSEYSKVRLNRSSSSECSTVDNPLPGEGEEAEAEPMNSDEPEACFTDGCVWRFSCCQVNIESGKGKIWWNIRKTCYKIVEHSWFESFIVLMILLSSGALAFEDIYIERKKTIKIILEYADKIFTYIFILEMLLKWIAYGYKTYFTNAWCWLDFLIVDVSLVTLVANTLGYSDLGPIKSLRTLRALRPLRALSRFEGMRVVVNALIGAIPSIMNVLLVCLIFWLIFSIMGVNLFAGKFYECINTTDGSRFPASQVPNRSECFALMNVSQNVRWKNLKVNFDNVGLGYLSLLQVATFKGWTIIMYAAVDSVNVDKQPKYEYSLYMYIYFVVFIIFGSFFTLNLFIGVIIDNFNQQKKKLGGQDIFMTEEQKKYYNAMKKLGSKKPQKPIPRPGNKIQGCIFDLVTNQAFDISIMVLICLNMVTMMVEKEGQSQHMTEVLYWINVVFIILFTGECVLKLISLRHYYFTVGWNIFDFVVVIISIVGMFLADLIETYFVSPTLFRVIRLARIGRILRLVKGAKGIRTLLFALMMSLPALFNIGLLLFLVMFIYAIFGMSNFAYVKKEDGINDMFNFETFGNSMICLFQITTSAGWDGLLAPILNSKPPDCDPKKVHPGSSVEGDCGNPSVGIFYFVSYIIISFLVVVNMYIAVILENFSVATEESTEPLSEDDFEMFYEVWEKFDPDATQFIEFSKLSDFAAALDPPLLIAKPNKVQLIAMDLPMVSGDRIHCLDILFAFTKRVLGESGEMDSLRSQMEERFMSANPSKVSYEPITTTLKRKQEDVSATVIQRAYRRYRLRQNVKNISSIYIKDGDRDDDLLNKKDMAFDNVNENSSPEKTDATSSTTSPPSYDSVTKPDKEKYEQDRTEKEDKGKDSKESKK

| SMILES | IC50 (hNav1.7 [1]) [nM] | IC50 (hNav1.7 [2]) [nM] |
| --- | --- | --- |
| CN(C)[C@H]1Cc2ccccc2C[C@@H]1Nc1cc(F)c(S(=O)(=O)Nc2nccs2)cc1Cl [Example 165, 5-Chloro-4-(((2S,3S)-3-(dimethylamino)-1,2,3,4-tetrahydronaphthalen-2-yl)amino)-2-fluoro-N-(thiazol-2-yl)benzenesulfonamide] | 2000 | 511 |
| CN(C)[C@H]1C[C@@H](c2cccc(C3CC3)c2)CC[C@@H]1Nc1cc(F)c(S(=O)(=O)Nc2ccncn2)cc1Cl [Example 219, 5-chloro-4-(((1S,2S,4S)-4-(3-cyclopropylphenyl)-2-(dimethyamino)cyclohexyl)amino)-2-fluoro-N-(pyrimidin-4-yl)benzenesulfonamide] | 1.71 | 0.942 |
| O=S(=O)(Nc1nccs1)c1cc(Cl)c(N[C@H]2CCCC[C@@H]2N2CCC3(CC2)CC3)cc1F [Example 154, 4-(((1S,2S)-2-(6-Azaspiro[2.5]octan-6-yl)cyclohexyl)amino)-5-chloro-2-fluoro-N-(thiazol-2-yl)benzenesulfonamide formate] | 1200 | 101 |
| CN(CCO)[C@H]1CCCC[C@@H]1Nc1cc(F)c(S(=O)(=O)Nc2cccc(F)n2)cc1C1CC1 [Example 128, 5-Cyclopropyl-2-fluoro-N-(6-fluoropyridin-2-yl)-4-(((1S,2S)-2-((2-hydroxyethyl)(methyl)amino)cyclohexyl)amino)benzenesulfonamide formate] | 22.8 | 9.56 |
| CN(CCCF)[C@H]1CCCC[C@@H]1Nc1cc(F)c(S(=O)(=O)Nc2nccs2)cc1Cl [Example 135, 5-chloro-2-fluoro-4-(((1S,2S)-2-((3-fluoropropyl)(methyl)amino)cyclohexyl)amino)-N-(thiazol-2-yl)benzenesulfonamide] | 313 | 32.8 |
| CN(C)[C@@H]1C[C@@H]2[C@H](C[C@H]1Nc1cc(F)c(S(=O)(=O)Nc3nccs3)cc1Cl)C2(Cl)Cl [Example 195, 5-Chloro-4-(((1S,3R,4R,6R)-7,7-dichloro-4-(dimethylamino)bicyclo[4.1.0]heptan-3-yl)amino)-2-fluoro-N-(thiazol-2-yl)benzenesulfonamide formate] | 8.11 | 1.4 |
| O=S(=O)(Nc1ccncn1)c1cc(Cl)c(N[C@@H]2CCCC[C@H]2N2CC3C(C2)C3(F)F)cc1F (stereo partly drawn) [Example 182, 5-chloro-4-(((1R,2R)-2-(6,6-difluoro-3-azabicyclo[3.1.0]hexan-3-yl)cyclohexyl)amino)-2-fluoro-N-(pyrimidin-4-yl)benzenesulfonamide] | 2000 | 1520 |
| O=S(=O)(Nc1ccncn1)c1cc(Cl)c(N[C@H]2CCCC[C@@H]2N2CC3C(C2)C3(F)F)cc1F (stereo partly drawn) [Example 183, 5-chloro-4-(((1S,2S)-2-(6,6-difluoro-3-azabicyclo[3.1.0]hexan-3-yl)cyclohexyl)amino)-2-fluoro-N-(pyrimidin-4-yl)benzenesulfonamide] | 277 | 12 |
| Cc1csc(NS(=O)(=O)c2cc(Cl)c(N[C@H]3CC[C@H](C(F)(F)F)C[C@@H]3N(C)C)cc2F)n1 [Example 171, 5-chloro-4-(((1S,2S,4S)-2-(dimethylamino)-4-(trifluoromethyl)cyclohexyl)amino)-2-fluoro-N-(4-methylthiazol-2-yl)benzenesulfonamide formate] | 255 | 12.2 |
| O=S(=O)(Nc1cccc(F)n1)c1cc(Cl)c(N[C@@H]2CCCC[C@H]2N2CC3CC3C2)cc1F (stereo partly drawn) [Example 106, 4-(((1R,2R)-2-(3-azabicyclo[3.1.0]hexan-3-yl)cyclohexyl)amino)-5-chloro-2-fluoro-N-(6-fluoropyridin-2-yl)benzenesulfonamide] | 670 | 74.9 |
| CN(C1CN(CC(F)(F)F)C1)[C@H]1CCCC[C@@H]1Nc1cc(F)c(S(=O)(=O)Nc2nccs2)cc1Cl [Example 175, 5-Chloro-2-fluoro-4-(((1S,2S)-2-(methyl(1-(2,2,2-trifluoroethyl)azetidin-3-yl)amino)cyclohexyl)amino)-N-(thiazol-2-yl)benzenesulfonamide] | 316 | 21.7 |
| CN(C)[C@H]1CN(c2cccc(C(F)(F)F)c2)CC[C@@H]1Nc1cc(F)c(S(=O)(=O)Nc2ccncn2)cc1Cl [Example 233, 5-Chloro-4-(((3S,4S)-3-(dimethylamino)-1-(3-(trifluoromethyl)phenyl)piperidin-4-yl)amino)-2-fluoro-N-(pyrimidin-4-yl)benzenesulfonamide] | 9.82 | 1.71 |
| CN(C)[C@H]1C[C@@H](C(F)(F)F)CC[C@@H]1Nc1cc(F)c(S(=O)(=O)Nc2ccncn2)cc1Cl [Example 112, 5-chloro-4-(((1S,2S,4S)-2-(dimethylamino)-4-(trifluoromethyl)cyclohexyl)amino)-2-fluoro-N-(pyrimidin-4-yl)benzenesulfonamide] | 229 | 15.1 |
| CN(C)CC(=O)N(C)[C@H]1CCCC[C@@H]1Nc1cc(F)c(S(=O)(=O)Nc2nccs2)cc1Cl [Example 167, N-((1S,2S)-2-((2-chloro-5-fluoro-4-(N-(thiazol-2-yl)sulfamoyl)phenyl)amino)cyclohexyl)-2-(dimethylamino)-N-methylacetamide] | 91.7 | 18.7 |
| CN(C)[C@H]1C[C@@H](c2cccc(C(F)(F)F)c2)CC[C@@H]1Nc1cc(F)c(S(=O)(=O)Nc2ccncn2)cc1Cl [Example 181, 5-chloro-4-[[(1S,2S,4S)-2-(dimethylamino)-4-[3-(trifluoromethyl)phenyl]cyclohexyl]amino]-2-fluoro-N-pyrimidin-4-yl-benzenesulfonamide] | 1.31 | 0.783 |
| CN(C)[C@@H]1CC(F)(F)CC[C@H]1Nc1cc(F)c(S(=O)(=O)Nc2nccs2)cc1Cl [Example 188, 5-chloro-4-(((1R,2R)-2-(dimethylamino)-4,4-difluorocyclohexyl)amino)-2-fluoro-N-(thiazol-2-yl)benzenesulfonamide formate] | 2000 | 684 |
| CN(C)[C@@H]1CN(c2cccc(C(F)(F)F)c2)CC[C@H]1Nc1cc(F)c(S(=O)(=O)Nc2ccncn2)cc1Cl [Example 234, 5-Chloro-4-(((3R,4R)-3-(dimethylamino)-1-(3-(trifluoromethyl)phenyl)piperidin-4-yl)amino)-2-fluoro-N-(pyrimidin-4-yl)benzenesulfonamide formate] | 2000 | 131 |
| CN(C)[C@H]1CC=CC[C@@H]1Nc1cc(F)c(S(=O)(=O)Nc2nccs2)cc1Cl [Example 141, 5-Chloro-4-(((1S,6S)-6-(dimethylamino)cyclohex-3-en-1-yl)amino)-2-fluoro-N-(thiazol-2-yl)benzenesulfonamide formate] | 275 | 12.7 |
| CN(C)[C@H]1C[C@@H](c2cccc(C(F)(F)F)c2)CC[C@@H]1Nc1cc(F)c(S(=O)(=O)Nc2ccon2)cc1Cl [Example 228, 5-chloro-4-(((1S,2S,4S)-2-(dimethylamino)-4-(3-(trifluoromethyl)phenyl)cyclohexyl)amino)-2-fluoro-N-(isoxazol-3-yl)benzenesulfonamide] | 5.78 | 0.846 |
| O=S(=O)(Nc1ccncn1)c1cc(Cl)c(N[C@H]2CCCC[C@@H]2N2CC3CC3C2)cc1F (stereo partly drawn) [Example 151, 4-(((1S,2S)-2-(3-azabicyclo[3.1.0]hexan-3-yl)cyclohexyl)amino)-5-chloro-2-fluoro-N-(pyrimidin-4-yl)benzenesulfonamide] | 181 | 20.1 |
